The values that follow are results of earlier work, collected in patent EP2251003A2, “Ophthalmic Compositions for the Re-epithelialization, Healing and Disinfection of the Eye Tissues” (priority 2009, dated 2010).

Where two headings read alike, the source gives them in different places.

The conditions of series [1]: rat, more recent studies.
The conditions of series [2]: topical use, reported in the literature.
For series [3], the system named is eye of the rabbit. The note with it: topical.
The conditions of series [4]: 50 mg/kg/day administered orally to rats, subchronic.
The conditions of series [5]: mouse.
The test system of series [6] is fibroblast. As to conditions: in vitro.
For series [7] the following is noted: eyedrops containing dexpanthenol.
Series [8] concerns eye of the rabbit. As to conditions: 5% ophthalmic solution, topical application.
The conditions of series [9]: 1.5 g/kg/day administered for 90 days.
For series [10] the following is noted: in vivo.
Series [11] deals with cornea of the rabbit. The note with it: administered to the cornea of the rabbit.
The conditions of series [12]: 1 g/kg/day, rat.

As to `N=C(N)c1ccc(OCCCCCCOc2ccc(C(=N)N)cc2)cc1` [hexamidine diisethionate], the “oral acute toxicity, expressed as LD50” value is 750 mg/kg in [1] and 710 to 2500 mg/kg in series [5] (oral, more recent studies). Further, the cases of sensitisation entry in [2] is “nine cases out of millions of subjects”. Besides, the eye irritation entry in series [3] (aqueous solutions containing 0.10-0.11%) was “slight, transient irritation”; in [3] (concentration of 0.050%), “no reaction”. Moreover, in series [4], the toxic effect result is “did not show any toxic effect”. In addition, in series [5] (intraperitoneal), the “intraperit. LD50” value was 1060 mg/kg. Moreover, the “oral LD Lo” value in series [5] (oral) is given as 100 mg/kg. In addition, the “oral LD50” value in series [5] (oral, Toxicology and Applied Pharmacology 1975) is recorded as 280 mg/kg.
In the case of `CC(C)(CO)[C@@H](O)C(=O)NCCCO` [dexpanthenol], the fibroblast proliferation result in series [6] is recorded as “activation of fibroblast proliferation”. Besides, the ocular tolerability entry in series [7] was “excellent”. Besides, in series [8], the “extent and time of re-epithelialisation of the corneal endothelium” value was “significantly stimulated”.
As to `CS(C)(=O)=O` [MSM, Methylsulphonylmethane], the toxic effect result in series [9] is “do not have any toxic effect”. Besides, the “absorption and urinary elimination” value in [10] is “rapid absorption and rapid urinary elimination”. In addition, in series [11], the “intraocular absorption of other substances” value was “promotes intraocular absorption of disodium edetate and other substances”. For the same compound, the “toxic effects on fertility, gestation and neonatal development” value in [12] was “absence of toxic effects”.
